Activity calls are given as the source filed them.
Legend:
[1] = target: T1, Corticotropin-releasing factor receptor 2/Corticotropin-releasing factor-binding protein (Homo sapiens, UniProt P24387+Q13324); assay: Dose Response confirmation of uHTS hits for small molecule antagonists of the CRF-binding protein and CRF-R2 receptor complex.; format: functional; details: read-out: IC50_Mean
T1 sequence (Q13324 whole entry): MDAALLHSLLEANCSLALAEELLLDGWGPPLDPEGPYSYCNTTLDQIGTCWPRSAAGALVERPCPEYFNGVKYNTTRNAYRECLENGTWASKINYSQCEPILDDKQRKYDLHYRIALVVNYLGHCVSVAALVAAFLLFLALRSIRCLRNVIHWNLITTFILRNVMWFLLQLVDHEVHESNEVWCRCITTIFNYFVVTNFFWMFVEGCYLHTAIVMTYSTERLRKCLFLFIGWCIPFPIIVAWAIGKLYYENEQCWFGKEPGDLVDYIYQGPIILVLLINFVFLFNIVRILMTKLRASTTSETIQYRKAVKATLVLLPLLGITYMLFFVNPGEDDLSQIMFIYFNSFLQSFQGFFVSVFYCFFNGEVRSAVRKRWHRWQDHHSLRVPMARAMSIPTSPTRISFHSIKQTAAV
T1 sequence (P24387 whole entry): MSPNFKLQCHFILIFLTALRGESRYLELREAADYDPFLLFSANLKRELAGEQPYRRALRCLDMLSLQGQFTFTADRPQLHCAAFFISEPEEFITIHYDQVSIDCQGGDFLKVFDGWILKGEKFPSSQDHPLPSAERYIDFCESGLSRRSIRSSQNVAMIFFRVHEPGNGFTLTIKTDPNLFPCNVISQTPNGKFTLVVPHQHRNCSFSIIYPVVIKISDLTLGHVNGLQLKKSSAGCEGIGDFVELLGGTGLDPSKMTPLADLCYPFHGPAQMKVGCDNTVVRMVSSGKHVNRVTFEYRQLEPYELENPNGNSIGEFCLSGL

[2] = blockers of CRF-binding protein–CRF-R2 complex – cell-based, uHTS hits, 384-well, dose response (AID 651639); format: functional, Homo sapiens; details: read-out: IC50_Mean
[3] = target: T1, Corticotropin-releasing factor receptor 2/Corticotropin-releasing factor-binding protein; assay: activators of CRF receptor 2 with binding protein – uHTS hits, confirmation (AID 602473); format: functional; details: read-out: EC50_Mean
[4] = target: Ras and Rab interactor 1/Tyrosine-protein kinase ABL1 (Homo sapiens, UniProt P00519+Q13671); format: functional;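 note: biochemical TR-FRET dose-response test measuring inhibition of binding between Rin1 and Abl proteins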
[5] = target: T2, High affinity choline transporter 1 (Homo sapiens, UniProt Q9GZV3); assay: human choline transporter blockers, potency – cell-based, 10-point CRC, membrane potential dye, dose response (AID 588401); format: functional;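 note: membrane potential dye fluorescence of choline-evoked depolarization via CHT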
T2 sequence (Q9GZV3 whole entry): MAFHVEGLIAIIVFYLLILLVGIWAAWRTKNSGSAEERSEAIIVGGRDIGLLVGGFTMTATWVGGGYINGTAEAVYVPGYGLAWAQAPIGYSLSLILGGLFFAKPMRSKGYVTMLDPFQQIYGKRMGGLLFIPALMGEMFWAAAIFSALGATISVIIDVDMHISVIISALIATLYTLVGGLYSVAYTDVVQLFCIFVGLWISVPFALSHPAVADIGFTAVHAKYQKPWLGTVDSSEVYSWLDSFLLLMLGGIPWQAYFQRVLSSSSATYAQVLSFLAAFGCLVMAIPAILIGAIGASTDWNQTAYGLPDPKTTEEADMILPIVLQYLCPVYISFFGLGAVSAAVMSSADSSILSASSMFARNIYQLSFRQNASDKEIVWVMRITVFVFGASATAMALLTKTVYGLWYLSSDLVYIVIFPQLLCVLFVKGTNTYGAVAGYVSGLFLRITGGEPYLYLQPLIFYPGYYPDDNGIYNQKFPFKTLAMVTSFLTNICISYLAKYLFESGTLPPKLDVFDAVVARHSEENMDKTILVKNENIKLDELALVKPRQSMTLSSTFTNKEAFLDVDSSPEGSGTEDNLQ

[6] = target: T3, DNA repair and recombination protein RAD54-like (Homo sapiens, UniProt Q92698); assay: RAD54 Holliday junction migration blockers – biochemical, fluorescence, cherry-picked samples, dose series, confirmation (AID 651657); format: functional
T3 sequence (Q92698 whole entry): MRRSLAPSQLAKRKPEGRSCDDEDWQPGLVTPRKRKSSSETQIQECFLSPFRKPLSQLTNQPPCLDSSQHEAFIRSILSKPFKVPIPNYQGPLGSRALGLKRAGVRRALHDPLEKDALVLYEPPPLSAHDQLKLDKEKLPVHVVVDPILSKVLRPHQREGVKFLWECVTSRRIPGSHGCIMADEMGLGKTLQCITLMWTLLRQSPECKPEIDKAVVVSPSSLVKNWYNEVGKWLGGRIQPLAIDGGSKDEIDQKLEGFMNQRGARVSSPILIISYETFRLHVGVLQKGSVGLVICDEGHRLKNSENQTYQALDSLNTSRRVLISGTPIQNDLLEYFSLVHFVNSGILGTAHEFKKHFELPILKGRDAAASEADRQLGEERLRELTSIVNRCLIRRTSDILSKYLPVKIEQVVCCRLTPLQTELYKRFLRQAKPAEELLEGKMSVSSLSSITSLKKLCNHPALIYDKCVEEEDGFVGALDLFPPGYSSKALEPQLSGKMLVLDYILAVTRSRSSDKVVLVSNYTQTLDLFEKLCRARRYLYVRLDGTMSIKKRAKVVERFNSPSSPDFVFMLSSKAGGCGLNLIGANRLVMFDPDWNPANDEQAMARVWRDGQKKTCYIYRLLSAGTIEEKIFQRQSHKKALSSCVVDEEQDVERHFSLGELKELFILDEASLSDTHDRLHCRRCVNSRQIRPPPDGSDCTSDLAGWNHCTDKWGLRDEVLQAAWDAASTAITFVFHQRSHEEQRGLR

[7] = target: T4, DNA repair protein RAD52 homolog (Homo sapiens, UniProt P43351); format: functional, biochemical
T4 sequence (P43351 whole entry): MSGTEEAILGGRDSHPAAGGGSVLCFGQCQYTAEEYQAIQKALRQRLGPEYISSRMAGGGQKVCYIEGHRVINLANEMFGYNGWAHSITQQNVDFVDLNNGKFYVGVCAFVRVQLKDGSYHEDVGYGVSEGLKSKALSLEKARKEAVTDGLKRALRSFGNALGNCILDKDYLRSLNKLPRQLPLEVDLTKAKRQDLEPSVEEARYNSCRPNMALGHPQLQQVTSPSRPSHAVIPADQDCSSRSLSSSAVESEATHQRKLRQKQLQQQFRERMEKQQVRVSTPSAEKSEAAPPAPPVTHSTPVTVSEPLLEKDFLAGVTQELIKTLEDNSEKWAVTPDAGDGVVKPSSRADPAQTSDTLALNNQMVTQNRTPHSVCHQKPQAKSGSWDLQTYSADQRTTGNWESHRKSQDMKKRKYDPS

[8] = target: T2, High affinity choline transporter 1; assay: human choline transporter blockers, potency – cell-based, 5-point CRC, membrane potential dye, dose response (AID 504840); format: functional
[9] = target: T5, Short transient receptor potential channel 4 (Mus musculus, UniProt Q9QUQ5); assay: block of DAMGO-driven TRPC4 calcium entry – cell-based, HEK293 TRPC4/mu-opioid, Fluo-4 calcium, dose response (AID 434942); format: functional;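 note: potency of inhibitors blocking the TRPC4 calcium response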
T5 sequence (Q9QUQ5 whole entry): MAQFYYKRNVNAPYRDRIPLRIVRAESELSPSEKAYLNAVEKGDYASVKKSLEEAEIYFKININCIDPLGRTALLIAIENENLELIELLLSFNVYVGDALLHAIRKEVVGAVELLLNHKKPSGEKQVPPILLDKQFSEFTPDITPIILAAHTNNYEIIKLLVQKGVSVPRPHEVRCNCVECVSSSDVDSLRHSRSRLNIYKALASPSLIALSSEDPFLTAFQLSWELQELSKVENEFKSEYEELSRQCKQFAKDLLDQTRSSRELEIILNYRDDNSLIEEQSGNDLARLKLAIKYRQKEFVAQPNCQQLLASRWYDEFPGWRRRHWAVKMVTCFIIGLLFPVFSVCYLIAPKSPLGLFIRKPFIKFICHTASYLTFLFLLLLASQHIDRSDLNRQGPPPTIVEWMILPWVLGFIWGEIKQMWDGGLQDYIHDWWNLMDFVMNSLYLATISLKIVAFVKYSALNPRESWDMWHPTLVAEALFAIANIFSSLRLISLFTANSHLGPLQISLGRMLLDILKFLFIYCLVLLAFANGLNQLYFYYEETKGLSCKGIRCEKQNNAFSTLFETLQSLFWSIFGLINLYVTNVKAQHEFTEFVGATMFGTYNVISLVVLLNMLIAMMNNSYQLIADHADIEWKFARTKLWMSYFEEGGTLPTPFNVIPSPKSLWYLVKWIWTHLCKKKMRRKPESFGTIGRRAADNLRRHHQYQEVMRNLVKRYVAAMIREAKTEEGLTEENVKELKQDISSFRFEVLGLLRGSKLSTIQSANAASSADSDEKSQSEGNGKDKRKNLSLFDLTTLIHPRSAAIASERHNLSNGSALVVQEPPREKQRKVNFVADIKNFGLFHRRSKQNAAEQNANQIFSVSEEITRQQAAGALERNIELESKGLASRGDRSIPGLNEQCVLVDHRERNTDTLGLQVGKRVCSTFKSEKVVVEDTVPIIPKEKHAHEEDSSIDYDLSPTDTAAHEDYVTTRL

[10] = target: Steroidogenic factor 1 (Homo sapiens, UniProt Q13285); assay: Counterscreen for inverse agonists of the liver receptor homolog-1 (LRH-1; NR5A2): Luminescence-based cell-based high throughput dose response assay to identify inverse agonists of the Steroidogenic Factor 1 Nuclear Receptor (SF1; NR5A1).; format: functional
[11] = target: Nuclear receptor subfamily 5 group A member 2 (Homo sapiens, UniProt O00482); format: functional, cell-based;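 note: HEK293T cells transfected with LRH-1 and a StAR promoter luciferase reporter; potency for inhibitors that lower LRH-1 driven reporter light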
[12] = nonselective StAR promoter luciferase inhibitors – cell-based, luminescence, luciferase reporter, counter-screen for LRH-1 inverse agonist project, dose response (AID 651969); format: functional
[13] = loss of viability in HepG2 cells – cell-based, CellTiter-Glo, cherry-picked, cytotoxicity control for Shn3 inhibitor project, dose response (AID 624134); format: functional
[14] = reduction of Shn3 3'UTR-driven luciferase in osteoblasts – cell-based, Clone20 osteoblasts, firefly luciferase, cherry-picked, dose response (AID 624132); format: functional;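 note: firefly luciferase luminescence from reporter carrying the Shn3 3'UTR in osteoblasts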
[15] = target: Protein Wnt-3a (Mus musculus, UniProt P27467); assay: antagonism of Wnt3a pathway luciferase reporter – Wnt-LIGHT cells, luminescence, selectivity assay for Gli-SUFU antagonist project, dose response (AID 651570); format: functional; details: read-out: IC50_Mean;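 note: Wnt-LIGHT reporter cells stimulated with conditioned medium from Wnt3a-producing cells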
[16] = non-specific 3'UTR reporter inhibition in Clone20-Shn3RL – cell-based, Renilla luciferase, cherry-picked, counter-screen for Shn3 inhibitor project, dose response (AID 624133); format: functional
[17] = target: Mitogen-activated protein kinase 10 (Homo sapiens, UniProt P53779); assay: Dose response biochemical screening assay for inhibitors of c-Jun N-Terminal Kinase 3 (JNK3). [Related pubchem assays: 746 ]
[18] = target: T6, Protein skinhead-1 (Caenorhabditis elegans, UniProt P34707); format: functional
T6 sequence (P34707 whole entry): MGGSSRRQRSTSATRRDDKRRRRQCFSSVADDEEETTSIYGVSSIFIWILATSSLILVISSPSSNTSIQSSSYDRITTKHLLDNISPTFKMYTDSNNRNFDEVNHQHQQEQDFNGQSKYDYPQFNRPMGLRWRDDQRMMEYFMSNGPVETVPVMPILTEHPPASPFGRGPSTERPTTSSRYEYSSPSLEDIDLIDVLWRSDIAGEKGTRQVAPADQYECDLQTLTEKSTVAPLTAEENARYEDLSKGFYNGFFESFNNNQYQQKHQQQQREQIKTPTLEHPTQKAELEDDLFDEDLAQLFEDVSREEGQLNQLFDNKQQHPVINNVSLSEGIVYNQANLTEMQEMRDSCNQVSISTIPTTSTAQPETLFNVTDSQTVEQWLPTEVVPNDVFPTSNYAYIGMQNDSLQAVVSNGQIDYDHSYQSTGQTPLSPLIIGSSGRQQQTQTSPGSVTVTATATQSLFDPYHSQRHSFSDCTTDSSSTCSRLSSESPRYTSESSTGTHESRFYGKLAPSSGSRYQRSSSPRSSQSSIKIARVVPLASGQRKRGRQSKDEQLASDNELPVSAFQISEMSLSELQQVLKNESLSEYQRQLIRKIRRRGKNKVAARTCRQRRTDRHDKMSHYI

[19] = target: Fructose-bisphosphate aldolase (Mycobacterium tuberculosis, UniProt P9WQA3); assay: Fluorescence-based biochemical high throughput dose response assay for inhibitors of the fructose-bisphosphate aldolase (FBA) of M. tuberculosis.; format: functional
Sequence of Fructose-bisphosphate aldolase (P9WQA3 whole entry): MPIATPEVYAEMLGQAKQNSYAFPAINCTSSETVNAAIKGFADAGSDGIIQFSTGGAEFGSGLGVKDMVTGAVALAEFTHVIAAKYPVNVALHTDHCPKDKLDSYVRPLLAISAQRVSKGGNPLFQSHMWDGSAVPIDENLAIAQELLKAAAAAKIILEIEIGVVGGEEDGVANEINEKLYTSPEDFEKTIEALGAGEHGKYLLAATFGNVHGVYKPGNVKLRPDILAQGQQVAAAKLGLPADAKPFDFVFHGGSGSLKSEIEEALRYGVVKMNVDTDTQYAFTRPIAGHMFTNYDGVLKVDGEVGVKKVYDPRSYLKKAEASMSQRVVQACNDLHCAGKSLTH

Sequence of Steroidogenic factor 1 (Q13285 whole entry): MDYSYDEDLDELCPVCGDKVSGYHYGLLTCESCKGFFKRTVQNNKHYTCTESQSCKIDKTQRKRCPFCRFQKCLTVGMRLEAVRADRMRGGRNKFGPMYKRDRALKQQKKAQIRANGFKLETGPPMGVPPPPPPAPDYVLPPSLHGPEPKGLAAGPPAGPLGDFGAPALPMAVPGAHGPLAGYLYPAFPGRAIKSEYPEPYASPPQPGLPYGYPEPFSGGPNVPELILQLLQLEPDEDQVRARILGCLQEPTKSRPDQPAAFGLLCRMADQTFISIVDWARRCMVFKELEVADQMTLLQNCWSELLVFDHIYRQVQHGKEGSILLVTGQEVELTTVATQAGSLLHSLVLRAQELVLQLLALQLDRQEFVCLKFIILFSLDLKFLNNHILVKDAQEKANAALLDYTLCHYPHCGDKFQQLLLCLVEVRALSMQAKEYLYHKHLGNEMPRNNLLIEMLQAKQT
Sequence of Nuclear receptor subfamily 5 group A member 2 (O00482 whole entry): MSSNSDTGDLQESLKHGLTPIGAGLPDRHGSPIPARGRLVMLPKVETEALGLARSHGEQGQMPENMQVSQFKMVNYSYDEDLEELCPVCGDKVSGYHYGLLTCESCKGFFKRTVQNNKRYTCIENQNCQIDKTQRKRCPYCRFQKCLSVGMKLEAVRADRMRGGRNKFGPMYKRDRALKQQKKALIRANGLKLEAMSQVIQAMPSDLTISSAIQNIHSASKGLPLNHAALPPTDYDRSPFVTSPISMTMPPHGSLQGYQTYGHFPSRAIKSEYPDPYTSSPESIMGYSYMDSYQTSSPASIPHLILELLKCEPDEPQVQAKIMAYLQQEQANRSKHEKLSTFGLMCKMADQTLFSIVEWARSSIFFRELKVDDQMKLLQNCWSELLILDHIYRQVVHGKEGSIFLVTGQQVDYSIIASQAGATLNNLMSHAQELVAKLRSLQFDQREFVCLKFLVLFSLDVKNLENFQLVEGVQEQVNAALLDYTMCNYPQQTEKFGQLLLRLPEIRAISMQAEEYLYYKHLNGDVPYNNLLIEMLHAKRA
Sequence of Ras and Rab interactor 1/Tyrosine-protein kinase ABL1 (P00519 whole entry): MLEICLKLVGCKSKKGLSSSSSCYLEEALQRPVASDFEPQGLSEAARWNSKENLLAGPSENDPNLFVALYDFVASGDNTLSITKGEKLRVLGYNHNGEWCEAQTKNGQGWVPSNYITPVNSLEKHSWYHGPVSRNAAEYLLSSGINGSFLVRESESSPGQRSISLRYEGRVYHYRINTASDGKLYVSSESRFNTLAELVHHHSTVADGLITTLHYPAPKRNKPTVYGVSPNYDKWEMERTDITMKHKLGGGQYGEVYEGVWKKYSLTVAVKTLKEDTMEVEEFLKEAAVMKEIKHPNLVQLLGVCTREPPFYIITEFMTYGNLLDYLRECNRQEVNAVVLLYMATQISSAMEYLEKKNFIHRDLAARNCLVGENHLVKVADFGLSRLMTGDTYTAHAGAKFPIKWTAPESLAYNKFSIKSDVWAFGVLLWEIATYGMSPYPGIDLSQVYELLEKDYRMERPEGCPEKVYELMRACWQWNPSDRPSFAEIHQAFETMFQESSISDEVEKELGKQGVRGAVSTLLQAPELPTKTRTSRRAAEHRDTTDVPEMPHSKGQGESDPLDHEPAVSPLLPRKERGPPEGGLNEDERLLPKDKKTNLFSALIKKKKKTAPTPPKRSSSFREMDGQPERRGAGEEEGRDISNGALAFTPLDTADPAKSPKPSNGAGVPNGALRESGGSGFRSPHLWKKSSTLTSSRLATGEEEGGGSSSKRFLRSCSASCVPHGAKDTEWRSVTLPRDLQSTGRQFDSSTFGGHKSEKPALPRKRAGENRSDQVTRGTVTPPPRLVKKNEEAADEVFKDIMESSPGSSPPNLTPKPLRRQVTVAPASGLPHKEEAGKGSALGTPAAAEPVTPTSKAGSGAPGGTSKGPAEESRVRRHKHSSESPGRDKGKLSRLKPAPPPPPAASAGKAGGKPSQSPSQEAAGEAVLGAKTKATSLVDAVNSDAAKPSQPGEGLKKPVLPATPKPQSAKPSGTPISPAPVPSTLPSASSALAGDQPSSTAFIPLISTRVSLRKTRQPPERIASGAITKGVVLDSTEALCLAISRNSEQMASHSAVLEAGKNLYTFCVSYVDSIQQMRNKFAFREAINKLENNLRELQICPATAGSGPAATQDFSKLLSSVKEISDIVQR
Sequence of Ras and Rab interactor 1/Tyrosine-protein kinase ABL1 (Q13671 whole entry): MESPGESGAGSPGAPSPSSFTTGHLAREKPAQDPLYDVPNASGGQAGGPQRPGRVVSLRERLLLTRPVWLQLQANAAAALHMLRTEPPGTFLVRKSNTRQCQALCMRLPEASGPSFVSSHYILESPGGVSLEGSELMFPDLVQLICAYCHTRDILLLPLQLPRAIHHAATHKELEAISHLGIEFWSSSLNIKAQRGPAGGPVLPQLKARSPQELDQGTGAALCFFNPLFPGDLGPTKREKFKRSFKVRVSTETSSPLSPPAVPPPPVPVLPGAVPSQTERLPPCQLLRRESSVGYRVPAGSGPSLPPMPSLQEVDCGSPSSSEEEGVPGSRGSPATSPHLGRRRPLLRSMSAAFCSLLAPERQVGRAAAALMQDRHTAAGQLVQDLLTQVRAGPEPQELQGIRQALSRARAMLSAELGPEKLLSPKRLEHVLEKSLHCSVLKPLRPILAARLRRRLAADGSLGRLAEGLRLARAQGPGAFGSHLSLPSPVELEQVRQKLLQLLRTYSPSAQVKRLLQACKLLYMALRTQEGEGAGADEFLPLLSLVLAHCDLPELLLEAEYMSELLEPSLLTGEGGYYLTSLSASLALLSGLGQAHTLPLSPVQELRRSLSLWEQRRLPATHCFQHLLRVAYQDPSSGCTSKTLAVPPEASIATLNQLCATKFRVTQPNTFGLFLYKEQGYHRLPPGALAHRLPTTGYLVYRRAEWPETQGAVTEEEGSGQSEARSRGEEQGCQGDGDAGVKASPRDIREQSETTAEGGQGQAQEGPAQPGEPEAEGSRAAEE
Sequence of Protein Wnt-3a (P27467 whole entry): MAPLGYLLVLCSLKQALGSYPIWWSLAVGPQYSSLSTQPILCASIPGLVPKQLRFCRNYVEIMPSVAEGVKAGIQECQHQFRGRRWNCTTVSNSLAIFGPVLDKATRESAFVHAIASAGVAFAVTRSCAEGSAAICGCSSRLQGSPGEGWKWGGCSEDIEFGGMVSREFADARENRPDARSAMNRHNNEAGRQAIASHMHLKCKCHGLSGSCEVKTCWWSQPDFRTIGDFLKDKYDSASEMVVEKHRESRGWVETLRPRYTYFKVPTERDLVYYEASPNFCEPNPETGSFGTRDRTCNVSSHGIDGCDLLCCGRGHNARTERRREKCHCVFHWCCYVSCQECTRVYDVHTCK
Sequence of Mitogen-activated protein kinase 10 (P53779 whole entry): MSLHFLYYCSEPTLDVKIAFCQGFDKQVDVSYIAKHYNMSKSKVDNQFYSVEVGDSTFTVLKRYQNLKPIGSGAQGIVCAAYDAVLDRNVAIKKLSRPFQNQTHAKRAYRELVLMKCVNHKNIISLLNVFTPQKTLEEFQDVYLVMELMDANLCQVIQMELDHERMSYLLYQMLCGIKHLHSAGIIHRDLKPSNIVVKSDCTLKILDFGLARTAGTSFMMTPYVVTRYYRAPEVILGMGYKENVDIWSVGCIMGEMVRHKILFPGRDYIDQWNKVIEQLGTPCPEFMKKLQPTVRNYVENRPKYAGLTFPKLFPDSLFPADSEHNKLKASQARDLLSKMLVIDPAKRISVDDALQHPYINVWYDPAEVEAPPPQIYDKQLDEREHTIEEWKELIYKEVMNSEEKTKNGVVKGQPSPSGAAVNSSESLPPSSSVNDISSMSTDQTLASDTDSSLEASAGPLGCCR

## COc1cccc(CN2C(=O)C(C)N(C(=O)c3ccccc3)c3ccccc32)c1 (stereo not given)
[1]
  IC50: 26.9 µM (active)
[2]
  IC50: 9.26 µM (active)
[3]
  EC50: > 53 µM (inactive)

## CCCc1ncc(CN2CCC(C(=O)Nc3cccc(-c4cscn4)c3)CC2)cn1
[4]
  IC50: 22.3 µM (inactive)

## CCCN1CCN(CCCN=C(S)Nc2ccc3nc(N4CCN(CC)CC4)cc(C)c3c2)CC1
[5]
  IC50: 2.67 µM (active)
[6]
  AC50: 25.8 µM (active)
[7]
  AC50: 1.71 µM (active)
[8]
  IC50: 2.3 µM (active)

## Cc1c(C(=O)NCC(c2ccco2)N(C)C)oc2c(Cl)cccc12 (stereo not given)
[4]
  IC50: 5.07 µM (active)
[9]
  EC50: 0.267 µM (active)

## O=C(COc1ccc2c3c(c(=O)oc2c1)CCC3)NCc1ccncc1
[10]
  IC50: 35.9 µM (inactive)
[11]
  IC50: 35.9 µM (inactive)
[12]
  IC50: 35.9 µM (inactive)

## Cc1cc(C)nc(SCC(=O)Nc2ccc(N3CCOCC3)c(Cl)c2)n1
[13]
  AC50: > 70 µM (inactive)
[14]
  AC50: 1.66 µM (active)
[15]
  IC50: 5.24 µM (active)
[16]
  AC50: 3.13 µM (active)

## O=C(Nc1ccc(-c2nc3cccnc3s2)cc1)c1ccco1
[17]
  IC50: > 93.1 µM (not active)
[18]
  IC50: 83.1 µM (inactive)
[19]
  IC50: 1.32 µM (active)

## OCc1ccc2c(c1)c(-c1ccc3c(c1)OCCO3)c(-c1ccccc1)n2-c1ccccc1
[19]
  IC50: 0.913 µM (active)

## Cc1cc(Br)ccc1NC(=O)CN1C(=O)C2CC=CCC2C1=O (stereo not given)
[10]
  IC50: 0.105 µM (active)
[11]
  IC50: 0.169 µM (active)
[12]
  IC50: 35.9 µM (inactive)

## O=S(=O)(Nc1cc(Cl)ccc1-n1cncn1)c1ccccc1Cl
[1]
  IC50: 32.6 µM (active)
[2]
  IC50: > 20 µM (inactive)
[3]
  EC50: > 53 µM (inactive)

## O=C(Cn1cc(C(=O)C2CC2)c2ccccc21)Nc1ccccc1Cl
[14]
  AC50: 3.42 µM (active)
[15]
  IC50: 5.2 µM (active)
[16]
  AC50: 4.12 µM (active)
